From article PMC10591299, “Targeting SHP2 with an Active Site Inhibitor Blocks Signaling and Breast Cancer Cell Phenotypes” (ACS Bio & Med Chem Au, 2023)

What was measured:
[1] = target: T1, FL-SHP2 (Homo sapiens, UniProt Q06124); test: PTPase assay on FLAG-tagged full-length SHP2 immunoprecipitated from MDA-MB468 cells; type: biochemical; conditions: FLAG-tagged FL-SHP2 on beads from MDA-MB468 cells, 20 μM DiFMUP
T1 construct: whether CNBCA is also effective against full-length SHP2 (FL-SHP2); expressed in transfected cells; host or cells: MDA-MB468
T1 sequence (Q06124 1-593): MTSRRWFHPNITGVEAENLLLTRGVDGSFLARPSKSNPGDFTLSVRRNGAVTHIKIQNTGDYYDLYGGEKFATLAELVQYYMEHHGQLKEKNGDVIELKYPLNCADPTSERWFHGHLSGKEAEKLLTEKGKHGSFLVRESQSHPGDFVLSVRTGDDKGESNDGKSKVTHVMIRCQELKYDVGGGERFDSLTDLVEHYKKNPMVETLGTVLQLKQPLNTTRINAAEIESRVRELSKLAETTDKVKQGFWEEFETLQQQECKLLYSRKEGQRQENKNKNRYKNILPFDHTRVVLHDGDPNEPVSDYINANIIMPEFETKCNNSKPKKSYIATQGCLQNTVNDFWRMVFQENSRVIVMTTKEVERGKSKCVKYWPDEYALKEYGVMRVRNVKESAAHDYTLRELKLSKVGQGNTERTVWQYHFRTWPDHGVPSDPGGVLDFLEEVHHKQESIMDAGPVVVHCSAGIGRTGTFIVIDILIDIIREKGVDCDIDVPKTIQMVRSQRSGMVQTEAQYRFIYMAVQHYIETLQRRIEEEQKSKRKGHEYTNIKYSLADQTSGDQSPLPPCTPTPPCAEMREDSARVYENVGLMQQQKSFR
Source text: To confirm efficiency of the expression, we conducted IB analysis of total protein extracts (TPE) prepared from the noncancerous MEF cells (mouse embryo fibroblasts), the MDA-MB468 BC cells that overexpress EGFR, and the BT474 BC cells that overexpress HER2. […] We also performed HER2 and EGFR IB analyses, which confirmed overexpression of these RTKs in the BC cells, but not in the MEF cells. […] Next, FL-SHP2 was immunoprecipitated (IP) with anti-FLAG antibody from the TPEs of the three cells (Figure 3F) and used for determining the activation state while still bound to protein-A sepharose beads, as described in the materials and methods. […] We thus used SHP2 expressed in BC cells to test the inhibitory effect of CNBCA on FL-SHP2. […]
For determining the inhibitory effect of CNBCA on FL-SHP2, a FLAG-tagged protein ectopically expressed in the EGFR overexpressing MDA-MB468 cells[8],[15] was used as an enzyme. […] After 20 min of incubation at 37 °C, 100 μL of the supernatant from each sample was transferred to 96-well plates, and fluorescence intensity measure as above, using the Synergy 4 plate reader. The resulting data was then analyzed with the Graphpad Prism software to draw the graph and determine the IC50 value.

[2] = target: T2, SHP2 (Homo sapiens, UniProt Q06124); test: Cellular thermal shift assay (CETSA), SHP2 immunoblot; type: binding; conditions: 100 μM CNBCA, cell lysate
T2 construct: endogenous in cells
T2 sequence (Q06124 1-593): T1 sequence (Q06124 1-593)
Source text: First, we used the cellular thermal shift assay (CETSA) to show whether CNBCA binds to endogenous full-length SHP2 under cellular contexts. The CETSA assay is based on the principle that specific inhibitors bind to a target protein and confer relative stability from heat-induced denaturation and precipitation when compared to a nontarget protein present in the same milieu.[34] Accordingly, we performed CETSA to test the effect of CNBCA on the SHP2 protein stability and compared it with the nontarget PTP1B protein as described in the materials and methods.
After heat treatment, supernatants were analyzed by immunoblotting (IB) for SHP2 and the nontarget phosphatase PTP1B. […] To provide semiquantitative data, band densities of both SHP2 and PTP1B were measured and presented as bar graph. […] On the other hand, the nontarget protein PTP1B was reduced to approximately 50% at 49 °C, to 25% at 55 °C, and to less than 10% at 58 °C (Figure 3B and D).
For the CETSA study, total protein extracts (TPE) prepared from two breast cancer cells, the triple-negative MDA-MB468 and the HER2-positive JIMT-1 cells, were used. Briefly, TPE from the two cell lines were cleared by centrifugation, mixed with CNBCA at 100 μM concentration (the maximum amount used in the IC50 studies), and incubated for 10 min at room temperature to allow binding. The mixture was then divided into 100 μL aliquots, treated with heat for 10 min at different temperatures, ranging from 37 to 64 °C that differ by 3 °C intervals, cooled on ice for 10 min, centrifuged at 20,000g for 20 min to remove precipitated proteins, and the supernatants analyzed by immunoblotting (IB) for SHP2 and the nontarget PTP, PTP1B. Aliquots that were mixed with CNBCA, but not treated with heat were used as positive controls for comparison.

- IC50 [1]: 0.615 µM
- SHP2 stabilized in solution (band density) ([2]; heat 49 °C 10 min): ~100%
- SHP2 stabilized in solution (band density) ([2]; heat 52 °C 10 min): 95%
- SHP2 stabilized in solution (band density) ([2]; heat 55 °C 10 min): 70%
- SHP2 stabilized in solution (band density) ([2]; heat 58 °C 10 min): 45%
Compound: CCCCCCCCCOc1ccc(-c2ccc(C(=O)O)cc2)cc1CCCC(=O)O [CNBCA, 3′-(3-carboxypropyl)-4′-(nonyloxy)-[1,1′-biphenyl]-4-carboxylic acid]
